According to patent US11932634B2 (Gilead Sciences, Inc., priority 2021, dated 2024):

How the values were obtained:
human DGKα = molecular target: T1, human DGKα (Homo sapiens, UniProt P23743); assay: DGKα Biochemical Activity Assay (ADP-Glo);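 further: recombinant enzyme converting diacylglycerol in lipid micelles with ATP, ADP formed detected by luminescence, IC50 from a four-parameter nonlinear fit, geometric mean across experiments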
T1 construct: purchased Carna Biosciences'; inferred from the same paragraph's 'obtained from Carna Biosciences')

[1] = tested on: Jurkat NFκB-luciferase cells; assay: Jurkat NFκB-Luciferase Assay; assay type: cell-based; conditions: Homo sapiens; Jurkat NFκB-luciferase cells activated with anti-CD3 antibody (OKT3), 2.5 hrs at 37° C., One-Glo Ex; geometric mean; read-out: DGK NFKb Luciferase EC50;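 further: bioluminescence read-out normalized to DMSO basal activation and to maximum enhancement at 1 µM compound, rising signal indicating stronger T-cell activation through DGKα inhibition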

T1 sequence (P23743 whole entry): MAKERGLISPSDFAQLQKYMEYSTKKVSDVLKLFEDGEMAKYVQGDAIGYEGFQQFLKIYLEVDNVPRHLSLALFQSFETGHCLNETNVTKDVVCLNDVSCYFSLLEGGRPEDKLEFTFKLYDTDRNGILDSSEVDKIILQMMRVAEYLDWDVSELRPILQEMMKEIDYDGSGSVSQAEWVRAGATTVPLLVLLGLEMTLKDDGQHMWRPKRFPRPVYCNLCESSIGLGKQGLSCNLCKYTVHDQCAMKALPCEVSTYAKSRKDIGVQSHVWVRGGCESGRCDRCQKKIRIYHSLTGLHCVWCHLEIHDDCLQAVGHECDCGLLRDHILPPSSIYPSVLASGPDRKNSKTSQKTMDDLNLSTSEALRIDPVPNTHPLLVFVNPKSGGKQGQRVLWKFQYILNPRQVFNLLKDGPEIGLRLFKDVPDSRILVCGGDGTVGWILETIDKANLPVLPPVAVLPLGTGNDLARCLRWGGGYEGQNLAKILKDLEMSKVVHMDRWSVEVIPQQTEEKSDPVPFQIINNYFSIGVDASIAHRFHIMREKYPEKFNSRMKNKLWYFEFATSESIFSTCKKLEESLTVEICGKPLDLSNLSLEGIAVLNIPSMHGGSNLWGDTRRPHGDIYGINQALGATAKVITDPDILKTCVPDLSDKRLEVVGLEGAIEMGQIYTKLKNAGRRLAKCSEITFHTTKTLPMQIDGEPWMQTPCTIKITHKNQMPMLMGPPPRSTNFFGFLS

Molecule [2H]C([2H])([2H])n1c(=O)nc(N2CCCc3c(C#CC4CCCN4CC(F)F)cccc32)c2c(F)cccc21 (centres unmarked) [Example 162, 4-[5-[2-[1-(2,2-difluoroethyl)pyrrolidin-2-yl]ethynyl]-3,4-dihydro-2H-quinolin-1-yl]-5-fluoro-1-(trideuteriomethyl)quinazolin-2-one] has an IC50 (human DGKα) of 9.27 nM and an EC50 [1] of 1.26 nM.

With O=c1nc(N2CCCCc3c(Br)cncc32)c2cc(F)ccc2[nH]1 [Example 163, 4-(6-bromo-2,3,4,5-tetrahydro-1H-pyrido[3,4-b]azepin-1-yl)-6-fluoroquinazolin-2(1H)-one] the IC50 (human DGKα) was 48.7 nM and the EC50 [1] was 8.9 nM.

For CC1(C#Cc2cncc3c2CCCCN3c2nc(=O)[nH]c3ccc(F)cc23)CC1 [Example 164, 6-fluoro-4-(6-((1-methylcyclopropyl)ethynyl)-2,3,4,5-tetrahydro-1H-pyrido[3,4-b]azepin-1-yl)quinazolin-2(1H)-one], the IC50 (human DGKα) was 5.58 nM and the EC50 [1] was 0.693 nM.

O=c1nc(N2CCCCc3c(C#CC4(C(F)(F)F)CC4)cncc32)c2cc(F)ccc2[nH]1 [Example 165, 6-fluoro-4-(6-((1-(trifluoromethyl)cyclopropyl)ethynyl)-2,3,4,5-tetrahydro-1H-pyrido[3,4-b]azepin-1-yl)quinazolin-2(1H)-one] gave an IC50 (human DGKα) of 12.2 nM and an EC50 [1] of 0.635 nM.

For [2H]C([2H])([2H])n1c(=O)nc(N2CCCc3c(C#CC4CCN(C)C4)cccc32)c2c(F)cccc21 (centres unmarked) [Example 166, 5-fluoro-4-[5-[2-(1-methylpyrrolidin-3-yl)ethynyl]-3,4-dihydro-2H-quinolin-1-yl]-1-(trideuteriomethyl)quinazolin-2-one], the IC50 (human DGKα) was 71.5 nM and the EC50 [1] was 6.71 nM.

With [2H]C([2H])([2H])n1c(=O)nc(N2CCOCc3c(C#CC4CCCN4C)cccc32)c2c(F)cccc21 (centres unmarked) [Example 167, 5-fluoro-4-[6-[2-(1-methylpyrrolidin-2-yl)ethynyl]-3,5-dihydro-2H-4,1-benzoxazepin-1-yl]-1-(trideuteriomethyl)quinazolin-2-one] the IC50 (human DGKα) was 18.5 nM and the EC50 [1] was 11 nM.

[2H]C([2H])([2H])n1c(=O)nc(N2CCOCc3c(C#CC4CCCN4CC(F)F)cccc32)c2c(F)cccc21 (centres unmarked) [Example 168, 4-[6-[2-[1-(2,2-difluoroethyl)pyrrolidin-2-yl]ethynyl]-3,5-dihydro-2H-4,1-benzoxazepin-1-yl]-5-fluoro-1-(trideuteriomethyl)quinazolin-2-one] showed an IC50 (human DGKα) of 5.33 nM and an EC50 [1] of 1.55 nM.

Work on [2H]C([2H])([2H])n1c(=O)nc(N2CCOCc3c(C#CC4CCCN4C(=O)C4CC4)cccc32)c2c(F)cccc21 (centres unmarked) [Example 169, 4-[6-[2-[1-(cyclopropanecarbonyl)pyrrolidin-2-yl]ethynyl]-3,5-dihydro-2H-4,1-benzoxazepin-1-yl]-5-fluoro-1-(trideuteriomethyl)quinazolin-2-one] yielded an IC50 (human DGKα) of 9.06 nM and an EC50 [1] of 12.8 nM.

[2H]C([2H])([2H])n1c(=O)nc(N2CCOCc3c(C#CC4(C(F)(F)F)CCN(C)C4)cccc32)c2c(F)cccc21 (centres unmarked) [Example 170, 5-fluoro-4-[6-[2-[1-methyl-3-(trifluoromethyl)pyrrolidin-3-yl]ethynyl]-3,5-dihydro-2H-4,1-benzoxazepin-1-yl]-1-(trideuteriomethyl)quinazolin-2-one] was tested, and the IC50 (human DGKα) was 25.7 nM and the EC50 [1] was 3.75 nM.

[2H]C([2H])([2H])n1c(=O)nc(N2CCOCc3c(C#CC4(C(F)(F)F)CCN(C5COC5)C4)cccc32)c2c(F)cccc21 (centres unmarked) [Example 171, 5-fluoro-4-[6-[2-[1-(oxetan-3-yl)-3-(trifluoromethyl)pyrrolidin-3-yl]ethynyl]-3,5-dihydro-2H-4,1-benzoxazepin-1-yl]-1-(trideuteriomethyl)quinazolin-2-one] gave an IC50 (human DGKα) of 11.4 nM and an EC50 [1] of 4.99 nM.

[2H]C([2H])([2H])n1c(=O)nc(N2CCOCc3c(C#CC4(C(F)(F)F)CCN(CC(F)F)C4)cccc32)c2c(F)cccc21 (centres unmarked) [Example 172, 4-[6-[2-[1-(2,2-difluoroethyl)-3-(trifluoromethyl)pyrrolidin-3-yl]ethynyl]-3,5-dihydro-2H-4,1-benzoxazepin-1-yl]-5-fluoro-1-(trideuteriomethyl)quinazolin-2-one] showed an IC50 (human DGKα) of 8.07 nM and an EC50 [1] of 1.4 nM.

Molecule [2H]C([2H])([2H])n1c(=O)nc(N2CCOCc3c(C#CC45CC(CN4CC(F)F)C5)cccc32)c2c(F)cccc21 [Example 173, 4-[6-[2-[2-(2,2-difluoroethyl)-2-azabicyclo[2.1.1]hexan-1-yl]ethynyl]-3,5-dihydro-2H-4,1-benzoxazepin-1-yl]-5-fluoro-1-(trideuteriomethyl)quinazolin-2-one] has an IC50 (human DGKα) of 0.731 nM and an EC50 [1] of 0.401 nM.

[2H]C([2H])([2H])n1c(=O)nc(N2CCOCc3c(C#CC45CC(CN4C)C5)cccc32)c2c(F)cccc21 [Example 174, 5-fluoro-4-[6-[2-(2-methyl-2-azabicyclo[2.1.1]hexan-1-yl)ethynyl]-3,5-dihydro-2H-4,1-benzoxazepin-1-yl]-1-(trideuteriomethyl)quinazolin-2-one] gave an IC50 (human DGKα) of 66.4 nM and an EC50 [1] of 32.9 nM.

In the case of [2H]C([2H])([2H])n1c(=O)nc(N2CCOCc3c(C#CC(C)(C)N)cccc32)c2c(F)cccc21 [Example 175, 4-(6-(3-amino-3-methylbut-1-yn-1-yl)-2,3-dihydrobenzo[e][1,4]oxazepin-1(5H)-yl)-5-fluoro-1-(methyl-d3)quinazolin-2(1H)-one], the IC50 (human DGKα) is reported as 122 nM and the EC50 [1] is reported as 21.3 nM.

Molecule [2H]C([2H])([2H])n1c(=O)nc(N2CCOCc3c(C#CC(C)(C)NC(=O)C4(C(F)(F)F)CC4)cccc32)c2c(F)cccc21 [Example 176, N-(4-(1-(5-fluoro-1-(methyl-d3)-2-oxo-1,2-dihydroquinazolin-4-yl)-1,2,3,5-tetrahydrobenzo[e][1,4]oxazepin-6-yl)-2-methylbut-3-yn-2-yl)-1-(trifluoromethyl)cyclopropane-1-carboxamide] has an IC50 (human DGKα) of 2.4 nM and an EC50 [1] of 5.36 nM.

For [2H]C([2H])([2H])n1c(=O)nc(N2CCOCc3c(C#Cc4coc(C)n4)cccc32)c2c(F)cccc21 [Example 177, 5-fluoro-1-(methyl-d3)-4-(6-((2-methyloxazol-4-yl)ethynyl)-2,3-dihydrobenzo[e][1,4]oxazepin-1(5H)-yl)quinazolin-2(1H)-one], the IC50 (human DGKα) was 17.5 nM and the EC50 [1] was 18.8 nM.

[2H]C([2H])([2H])n1c(=O)nc(N2CCOCc3c(C#CC(C)(C)NC(=O)C4(C(F)F)CC4)cccc32)c2c(F)cccc21 [Example 178, 1-(difluoromethyl)-N-(4-(1-(5-fluoro-1-(methyl-d3)-2-oxo-1,2-dihydroquinazolin-4-yl)-1,2,3,5-tetrahydrobenzo[e][1,4]oxazepin-6-yl)-2-methylbut-3-yn-2-yl)cyclopropane-1-carboxamide] showed an IC50 (human DGKα) of 6.36 nM and an EC50 [1] of 9.33 nM.

With [2H]C([2H])([2H])n1c(=O)nc(N2CCOCc3c(C#CC(C)(C)NC(=O)C(C)(C)C(F)F)cccc32)c2c(F)cccc21 [Example 179, 3,3-difluoro-N-(4-(1-(5-fluoro-1-(methyl-d3)-2-oxo-1,2-dihydroquinazolin-4-yl)-1,2,3,5-tetrahydrobenzo[e][1,4]oxazepin-6-yl)-2-methylbut-3-yn-2-yl)-2,2-dimethylpropanamide] the IC50 (human DGKα) was 3.48 nM and the EC50 [1] was 15.1 nM.

[2H]C([2H])([2H])n1c(=O)nc(N2CCOCc3c(C#CC(C)(C)NC(=O)C4(C(C)(F)F)CC4)cccc32)c2c(F)cccc21 [Example 180, 1-(1,1-difluoroethyl)-N-(4-(1-(5-fluoro-1-(methyl-d3)-2-oxo-1,2-dihydroquinazolin-4-yl)-1,2,3,5-tetrahydrobenzo[e][1,4]oxazepin-6-yl)-2-methylbut-3-yn-2-yl)cyclopropane-1-carboxamide] was tested, and the IC50 (human DGKα) was 4.63 nM and the EC50 [1] was 7.56 nM.
